Each block holds one compound with its values, some of them ahead of it. Residues, ends and D or L forms follow the SMILES beside them. *: point of attachment. Cbz = O=C(OCc1ccccc1)*
Experiments:
[1] = molecular target: T1, L444P GC (Homo sapiens, UniProt P04062, L483P); assay: GC activity assay in L444P GC Gaucher patient-derived fibroblasts; format: cell-based
T1 construct: a L444P GC Gaucher fibroblast cell line (GM08760); host or cells: Gaucher patient-derived skin fibroblasts
T1 sequence (P04062 40-536 L483P): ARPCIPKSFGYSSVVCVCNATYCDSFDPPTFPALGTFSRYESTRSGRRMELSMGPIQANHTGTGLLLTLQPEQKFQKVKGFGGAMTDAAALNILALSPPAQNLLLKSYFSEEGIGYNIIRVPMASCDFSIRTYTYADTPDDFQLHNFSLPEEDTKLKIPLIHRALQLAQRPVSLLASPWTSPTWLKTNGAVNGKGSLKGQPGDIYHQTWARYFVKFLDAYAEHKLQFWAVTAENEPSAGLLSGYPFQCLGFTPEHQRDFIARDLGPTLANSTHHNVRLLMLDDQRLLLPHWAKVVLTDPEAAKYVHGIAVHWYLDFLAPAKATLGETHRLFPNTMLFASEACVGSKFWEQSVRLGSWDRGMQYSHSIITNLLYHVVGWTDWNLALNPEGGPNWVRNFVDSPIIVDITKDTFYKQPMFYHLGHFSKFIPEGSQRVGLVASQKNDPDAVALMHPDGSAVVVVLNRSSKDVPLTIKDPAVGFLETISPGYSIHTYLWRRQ

[2] = system: L444P GC; format: cell-based, human; details: MG-132 0.25 μM for 3 d; diltiazem 10 μM for 14 days
Text: (§1) Immunofluorescence. Immunofluorescence has been previously described.
as §1

[3] = system: Hsp70, HSF1, BiP, Hsp40, Hsp90; assay: Western blot of chaperone and HSF1 protein levels in L444P GC fibroblasts; format: cell-based, human
Procedure: To correlate changes in Hsp70 chaperone levels with the celastrol-mediated transcriptional increase in Hsp70, as well as to investigate the temporal dependence of the change in Hsp70 levels, L444P GC fibroblasts were subjected to a single celastrol exposure (0.8 μM) for the period indicated and Hsp70 expression levels in cell lysates were analyzed by Western blot analysis. […] Hsp70, a product of HSR activation, has been implicated in HSR autoregulation by binding to HSF1, thereby repressing heat shock gene transcription (FIG. 7). Morimoto, Genes Dev 12: 3788-3796, 1998; Westerheide et al., J Biol Chem 280: 33097-33100, 2005.
Since HSF1 is likely to be responsible for celastrol's induction of the HSR we monitored HSF1 levels. Westerheide et al., J Biol Chem 279: 56053-56060, 2004. […] Awasthi, et al., Invest Opthalmol Vis Sci 46: 2082-2091, 2005; Bush et al., J Biol Chem 272: 9086-9092, 1997.
Western blot analyses. […] Total cell protein was determined with Micro BCA assay reagent (Pierce, Rockford, Ill.) and each sample was diluted to the same protein concentration. […] The western blot bands of the endoH treated samples were quantified by Java Image processing and analysis software from the NIH (http://rsb.info.nih.gov/ij/).
Western blot. […] Total cell protein was measured using the Micro BCA assay reagent. […]

[4] = system: chaperone, CHOP and GC mRNA expression levels; assay: Quantitative RT-PCR in L444P GC fibroblasts; format: cell-based, human
Text: The relative mRNA expression levels of representative cytoplasmic HSR-associated chaperones (Hsp40, Hsp70, Hsp90, Hsp27, αB-crystallin), ER lumenal UPR-associated chaperones (BiP, GRP94, calreticulin), and the ER chaperone calnexin were monitored and their reported levels were normalized to the levels in untreated cells (FIGS. 5A and B). The levels of glyceraldehyde-3-phosphate dehydrogenase, monitored as a housekeeping control, were unchanged in treated and untreated cells.
Quantitative RT-PCR. […] The forward and reverse primers for Hsp40, Hsp70, Hsp90, Hsp27, αB-crystallin (CRYAB), BiP, GRP94, calnexin (CNX), calreticulin (CRT), Xbp-1, and CHOP, and an endogenous housekeeping gene GAPDH are listed in Table 2. […] Each data point was evaluated in triplicate, and measured three times.

[5] = diltiazem 10 μM, 7-day treatment

SMILES: CC(C)C[C@@H](C=O)NC(=O)[C@H](CC(C)C)NC(=O)[C@H](CC(C)C)NC(=O)OCc1ccccc1 [MG-132] (Cbz-Leu-Leu-Leu-aldehyde)
- L444P GC activity as % of WT GC activity ([1]; MG-132 single exposure, after 120 h (FIG. 2A)): ≈ 50.0%
- colocalization of L444P GC with lysosomal marker LAMP2 [2]: exhibited colocalization with the lysosomal marker LAMP2
- HSF1 protein levels ([3]; 0.8 μM, over 24 h): remained constant
- transcription of Hsp27 ([4]; 0.8 μM, 24 h): did not
- transcription of calnexin ([4]; 0.8 μM, 24 h): upregulated the transcription of calnexin significantly
- mRNA expression level of BiP ([4]; 0.8 μM, 2, 4, 6 and 24 h): BiP was also upregulated
- mRNA expression level of CHOP ([4]; 0.8 μM, 2, 4, 6 and 24 h): upregulated the mRNA expression level of CHOP significantly

- direct activation of lysosomal L444P GC ([1]; 1 μM to 100 μM, 1 h, intact cell assay): No activity increase was observed
- L444P GC activity as % of normal cellular WT GC activity ([1]; diltiazem 10 μM, 5-day incubation, type II line (FIG. 17C, left panel)): ≈ 24%
SMILES: COc1ccc([C@@H]2Sc3ccccc3N(CCN(C)C)C(=O)[C@@H]2OC(C)=O)cc1.Cl [diltiazem, Diltiazem hydrochloride]
- effect on L444P GC activity, intact cell GC activity assay ([1]; calcium channel blockers and ionotropic glutamate receptor inhibitors): increased L444P GC activity significantly
- colocalization of L444P GC with lysosomal marker LAMP2 [2]: L444P GC colocalized with LAMP2
- protein expression levels of BiP, Hsp40, and Hsp90 [3, 5]: increased protein expression levels
- mRNA expression levels of Hsp70, GRP94, calnexin, and calreticulin [4, 5]: not changed significantly
- GC mRNA expression level vs untreated cells ([4]; diltiazem 10 μM, 6 h, 12 h, 1 day, 3 days and 5 days): No significant differences
